Common to all, as to type: cell-based, human
Experiment [1] deals with dermal fibroblasts spheroids (DFSs). Description: On-chip screening of active ingredients on DFSs: collagen type I and fibronectin secretion (ELISA of culture supernatant). On the procedure: The microfluidic device was first, purged for 20 min with fluorinated oil with 0.5 wt % 008-fluorosurfactant (RAN Biotechnologies, USA) at a flow rate of 0.1 mL/hr. Subsequently, the supplying channel and the microwells were filled with the hDFs-in-EKGel I suspension with a cell density of 4.9×10^5 cells/μL. After that, the cell suspension in the supplying channel was replaced with fluorinated oil with 0.5 wt % surfactants. The inlet and outlet of the microfluidics quadruplet device were then sealed with PCR sealing tape and incubated at 37° C. for 2 hours, allowing EKGel to gel. Subsequently, the complete culture medium was continuously flowed through the supplying channel at the flow rate of 0.025 mL/hr. On the second day (Day 1), hDFs-laden EKGel droplets transformed into dermal fibroblasts spheroids (DFSs). Due to the contraction of DFSs, free space was present in each microwell, which allowed the incorporation of a second layer. To introduce another layer of keratinocytes, the culture medium was replaced by fluorinated oil with 0.5 wt % surfactants.
(§1) To study the effect of vitamin C or retinol on DFSs or KDFSs, on Day 2 the complete culture medium was replaced with 1% FBS DMEM culture medium with 1% (v/v) penicillin/streptomycin containing 0, 20, or 100 μg/mL vitamin C. Retinol at concentrations of 0, 30, 45, 60 μM was dissolved in 1% FBS DMEM culture medium with 1% (v/v) penicillin/streptomycin and 0.1% dimethyl sulfoxide (DMSO). The culture supernatant was collected from the outlet every 24-hours for analysis.
The amount of procollagen type I and fibronectin synthesized by hDFs and released in the supernatant were quantified using two ELISA kits, namely, Procollagen Type I C-Peptide (PIP) ELISA kit (MK101, Takara Bio Inc.) and Fibronectin ELISA kit (MK115, Takara Bio Inc.). Procollagen type I was used as the indicator for the collagen type I synthesized from hDFs. To determine the amount of procollagen type I synthesized by the cells, 20 μL collected culture supernatant and 100 μL of the anti-PIP antibody-peroxidase (POD) were added into a 96-well microplate coated with anti-PIP antibody and incubated at 37° C. for 3 hours. To determine the amount of fibronectin synthesized by the cells, 100 μL of the supernatant was first, added to the antibody-coated 96-well microplate for 1 hour at 37° C., thus allowing the fibronectin in the supernatant to bond to the antibody-coated on the microplate.
The supernatant was then discarded, and the microplates were washed with 1×PBS (MK021, Takara Bio Inc.) three times. Subsequently, the captured fibronectin was tagged by adding 100 μL of anti-human fibronectin antibody-POD conjugate into the microplate and incubating it for another 1 hour at 37° C. Upon completion of the antibody-POD conjugate incubation for both assays, the liquid content in the microwells was discarded and the microwells were washed four times with 1×PBS. 100 μL substrate solution (solution of 3,3′,5,5′-tetramethylbenzidine) was then added to the wells and incubated at room temperature for 15 min. Subsequently, 100 μL stop solution (MK021, Takara Bio Inc.) was added to each well. After stopping the reaction between POD and substrate, the absorbance of the contents of each microwell at 450 nm was measured by the CLARIOstar plate reader.

Experiment [2] has the same test system. The experiment can be described thus: Immunofluorescence staining of collagen type I and fibronectin deposited in DFSs on the chip. Particulars: 72-hour treatment, 100 μg/mL vs 0 μg/mL vitamin C. The procedure: as §1
The immunofluorescence staining on DFSs/KDFSs formed in the microfluidic device was conducted by flowing a series of solutions at a flow rate of 0.15 mL/hr into the supplying microchannel in the following order. First, 1× Hanks' Balanced Salt Solution (HBSS) was flowed into the device for 20 min to remove the cell culture medium. Subsequently, a 5% formalin solution in HBSS was flowed to fix the DFSs/DKFSs. Subsequently, the formalin was washed away by purging 0.1 M glycine in 1×HBSS for 60 min. To permeate the DFSs/KDFSs, 0.5% triton-X in 1×HBSS was flowed into the device for 30 min. Subsequently, an immunofluorescence (IF) solution (consisting of 0.05 wt % NaN3, 0.1 wt % bovine serum albumin, 0.2 vol. % triton-X-100 and 0.05 vol. % Tween-20 in HBSS) was flowed to the microfluidics for 45 min. Primary blocking solution (10 wt % goat serum in IF washing solution) was then flowed for 60 min. […]

The subject of experiment [3] is keratinocyte-dermal fibroblasts spheroids (KDFSs). The experiment can be described thus: Vitamin C screening on KDFSs: collagen type I and fibronectin secretion. Particulars: 24-hour treatment; KDFSs from two lineages of dermal fibroblasts. On the procedure:
Keratinocytes were suspended in EKGel II precursor solution at a cell/gel mass ratio of 75:25. The keratinocytes-in-EKGel II suspension was then purged into the channel and filled the microwells. Consequently, the cell suspension in the supplying channel was washed away by fluorinated oil mixed with 0.5 wt % surfactants. The device was sealed and incubated at 37° C. for 1 hour. Finally, the complete culture medium was flowed to the microfluidic device at the flow rate of 0.025 mL/hr. On Day 2, keratinocytes aggregated and integrated with the hDF core to form layered skin spheroids, KDFSs.
To study the effect of vitamin C or retinol on DFSs or KDFSs, on Day 2 the complete culture medium was replaced with 1% FBS DMEM culture medium with 1% (v/v) penicillin/streptomycin containing 0, 20, or 100 μg/mL vitamin C. […]
The amount of procollagen type I and fibronectin synthesized by hDFs and released in the supernatant were quantified using two ELISA kits, namely, Procollagen Type I C-Peptide (PIP) ELISA kit (MK101, Takara Bio Inc.) and Fibronectin ELISA kit (MK115, Takara Bio Inc.). […]
The supernatant was then discarded, and the microplates were washed with 1×PBS (MK021, Takara Bio Inc.) three times. […] After stopping the reaction between POD and substrate, the absorbance of the contents of each microwell at 450 nm was measured by the CLARIOstar plate reader.

[4] abbreviates: 100 μg/mL vitamin C for 24-hours.

Take `CC1=C(/C=C/C(C)=C/C=C/C(C)=C/CO)C(C)(C)CCC1` [retinol]: the “effect on fibronectin production in DFSs” value in experiment [1] (retinol 30 μM, preliminary study) is “positive and significant effect”; in experiment [1] (retinol 45 μM, preliminary study), “positive and significant effect”. The “effect of retinol on DFSs (fibronectin production)” value in experiment [1] (retinol 60 μM, longer incubation time (day 5), preliminary study) is “negative effect”. Also, the “effect on collagen expression in DFSs” value in experiment [1] (retinol 30, 45, 60 μM, preliminary study) was “significant positive effect of retinol was not yet observed”.

Take `O=C1O[C@H]([C@@H](O)CO)C(O)=C1O` [vitamin C]: in experiment [1] (setting [4]), the “collagen type I secretion from DFSs” value was “increased level” and the “fibronectin secretion from DFSs” value is given as “increased level”. Further, in experiment [2], the “deposition of collagen type I in DFSs” value was “increased” and the “deposition of fibronectin in DFSs” value is “increased”. Moreover, the “concentration required to stimulate the production of collagen and fibronectin in KDFSs compared to DFSs” value in experiment [3] was “a higher concentration of vitamin C was required”.

Values taken from patent US20240002789A1, “SKIN SPHEROIDS AND PROCESS OF PREPARATION AND USE THEREOF” (The Governing Council of The University of Toronto, priority 2020, published 2024).
